Data taken from the METLIN SMRT retention time set (Domingo-Almenara et al. 2019).

Experiment: gradient 5% acetonitrile 3 min, to 50% in 2 min, to 85% in 15 min, held 3 min, 100 µL/min
Settings: column: Zorbax Extend-C18 2.1 x 50 mm; eluents: water / acetonitrile, 0.1% formic acid
Summary of the method: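 Using water and acetonitrile that each contained 0.1% formic acid, mixtures of ~100 pure standards were separated at 100 μL/min on a Zorbax Extend-C18 column (2.1 × 50 mm, 1.8 μm). The HPLC fed a quadrupole time-of-flight mass spectrometer working in positive and negative ionization mode, with dead and dwell volumes of 40 μL and 900 μL. Data were acquired over 3 months. Retention time was read from computationally picked adduct peaks after manual inspection of each.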

Structure (SMILES)	RP-LC retention time
COc1cccc(NS(=O)(=O)c2cc3c(s2)CCN(C(=O)C2CC2)C3)c1	801 s
COc1ccc(-c2cc3c4nnc(CCC(=O)N5CCC(C(N)=O)CC5)n4ccn3n2)cc1	613 s
O=C(O)c1cccnc1N1CCCCC1	575 s
CCc1ccc(S(=O)(=O)N2c3ccccc3CC2c2nnc(C3CCOCC3)o2)cc1 (configuration not stated)	948 s
CCC1c2nccn2CCCN1C(=O)c1ccc2c(c1)OCO2 (configuration not stated)	593 s
Cc1cc(C)c(OCC(=O)N(Cc2ccc(C)o2)C2CCS(=O)(=O)C2)c(C)c1 (configuration not stated)	1030 s
CCN(CC)C(=O)c1ccc(-c2nc3cc(NS(=O)(=O)c4ccccc4C)ccc3n2C)cc1	694 s
Cc1nnc2cc(N3CCN(C(=O)Nc4ccccc4F)CC3)cnn12	542 s
O=C(c1cc(S(=O)(=O)N2CCCC(C(=O)N3CCc4ccccc4C3)C2)c[nH]1)N1CCCC1 (configuration not stated)	808 s
Cc1ccc(F)c2c(=O)c3c([nH]c12)CCN(CC(=O)Nc1ccc2c(c1)OCO2)C3	615 s
Cc1ccc(-c2cc3c(=O)n(Cc4noc(CN5CCc6ccccc65)n4)ccn3n2)cc1	1100 s
COc1ccc(NC(=O)c2ccc3ncsc3c2)c([N+](=O)[O-])c1	800 s
CC1CCN(C(=O)CSc2nnc(-c3ccc(F)cc3)o2)CC1	958 s
Cc1ccc(Nc2c(-c3ccc4c(c3)OCO4)nc3cnccn23)c(Br)c1	1000 s
Cc1ccc(C2=NC3(CCN(C(=O)c4ccc5ccccc5n4)CC3)ON2)cc1	809 s
CC(=O)N1CCc2[nH]c3ccc(C(=O)NCc4ccc(N5CCOCC5)cc4)cc3c2C1	635 s
O=C(c1ccc(-c2nccnc2N2CCCC2)cc1)N1CCC(Cc2ccccc2)CC1	1110 s
CC1CCN(S(=O)(=O)c2ccc3nn(Cc4cccc(C#N)c4)c(=O)n3c2)CC1	768 s
CCN(CC)c1nc(C(=O)N2CCN(C3CCN(C)CC3)CC2)nc2nc(C)cc(C)c12	540 s

Structure (SMILES)	RP-LC retention time
COc1ccc(-c2noc(CN3C(=O)COc4cc(Cl)ccc43)n2)cc1OC	971 s
Cn1nc(N2CCCC(NS(=O)(=O)Cc3ccccc3)C2)ccc1=O (configuration not stated)	702 s
Nc1cc(C2CCN(S(=O)(=O)c3ccc(Cl)cc3)CC2)no1	826 s
COc1ccc(Nc2c(C(=O)N3CCCCC3C)cnc3nc(C)ccc23)cc1 (configuration not stated)	639 s
O=c1c2sccc2n(Cc2nc(-c3cccc(Br)c3)no2)c(=O)n1-c1cccc(F)c1	1080 s
Cc1ccc(NC(=O)Nc2ccc3nncn3c2)cc1C	730 s
O=C(NCc1nc(-c2ccc(NS(=O)(=O)c3ccccc3)cc2)no1)c1cccs1	832 s
O=S(=O)(NC1CCCCC1)c1ccc2c(c1)-c1oncc1CO2	673 s
COc1ccc(-c2csc3c(=O)n(CC(=O)NCc4ccco4)cnc23)cc1	764 s
CS(=O)(=O)c1ccc2nc(NC(=O)CN3C(=O)CCC3=O)sc2c1	582 s
CCC1Oc2ccc(C)cc2N(CC(=O)NCCCN2CC(C)CC(C)C2)C1=O (configuration not stated)	708 s
CCC(=O)N(CCCOC)CC(=O)N1CCc2sccc2C1COc1ccccc1F (configuration not stated)	912 s
CCOc1cc2c(cc1OCC)C(c1ccc(OC)c(OC)c1OC)CC(=O)N2 (configuration not stated)	836 s
CC(=O)N1CCN(Cc2nc(-c3ccc(N4CCSCC4)nc3)no2)CC1	669 s
COc1ccc(NC2=NS(=O)(=O)C(c3ccc(F)cc3)=C2C)c(OC)c1	929 s
COc1ccc(-n2cc(C(=O)NCCc3c[nH]c4ccc(F)cc34)nn2)cc1	871 s
O=C(Cc1ccccc1)N1CCC(Nc2cccn3ncnc23)CC1	713 s
CCn1ccc(C(=O)N2CC(n3cc(COC)nn3)C2)n1	605 s
Cc1ccc(-c2nc3ccc(Cl)cn3c2Nc2ccc3c(c2)OCCO3)cc1	779 s

Results, then the compound that gave them:

RP-LC retention time	Structure (SMILES)
1070 s	COc1ccc(-c2noc(-c3nc(-c4ccccc4OC)no3)n2)cc1OC
751 s	O=C(NC1CCN(c2cc(-c3ccc(Cl)cc3)[nH]n2)C1)c1ccccn1 (configuration not stated)
686 s	CCOC(=O)C1CCN(C(=O)C2CCCN(c3cnc4nccnc4c3)C2)CC1 (configuration not stated)
743 s	O=C(Cc1ccsc1)N1CCOc2ccc(N3CCOCC3)cc2C1
652 s	CCc1nnc(C2CCN(S(=O)(=O)c3cccnc3)CC2)s1
804 s	O=C(Nc1cnc(N2CCCC2)nc1)c1ccc(F)c(Cl)c1
661 s	CCOC(=O)N1CCN(S(=O)(=O)c2ccc(C(=O)Nc3nnc(C4CC4)o3)cc2)CC1
656 s	Cc1cc(=O)n(CC(=O)NCc2ccc(F)cc2)c(N2CCCCC2)n1
939 s	CCC(C)(C)NS(=O)(=O)c1ccc(-c2c(C)noc2C)cc1
744 s	CCn1cc(CN2CCC(C(=O)NCc3cccc(Cl)c3)CC2)c2cc(OC)ccc21
1000 s	COCCCNc1onc(-c2ccc(Cl)cc2)c1C(=O)OC
819 s	COc1ccc2sc(OC3CCN(C(=O)NC(C)C)CC3)nc2c1
821 s	O=C(NCCCc1ccccc1)C1CCN(C(=O)c2ncn3c2COC(c2ccccc2)C3)CC1 (configuration not stated)
666 s	Cc1cccc(C)c1NC(=O)N(C)CC1CCOC1 (configuration not stated)
610 s	CCOc1cc(N2CCN(C(=O)c3cc(Cl)ccc3OC)CC2)nc(C)n1
622 s	CSc1ccccc1CN1CCC(CNC(=O)C(=O)NCCC2=CCCCC2)CC1
614 s	CC1(C)CC(=O)C2=C(C1)Nc1ccccc1N(CC(=O)NCc1cccnc1)C2c1ccco1 (configuration not stated)
644 s	O=C(CSc1nccn1Cc1ccc(Cl)cc1)NCCc1ccccc1
752 s	Cc1nc(-c2cccs2)c(CCC(=O)Nc2nccs2)s1
606 s	O=C(N[C@@H]1CN(c2ncccn2)C[C@H]1CO)c1ccc2c(c1)OCO2
601 s	O=C(c1cnccn1)N1CC(c2nc(CCOCC3CCCC3)no2)C1
654 s	O=C(NCCCN1CCOCC1)c1csc(N2CCN(c3ccccc3)CC2)n1
655 s	COc1ccc(C(=O)N2CCCC2c2cc(C)on2)cc1OC (configuration not stated)
685 s	O=C(NCc1cccnc1Oc1ccccc1)c1ccco1
864 s	Cc1ccc2[nH]cc(CCN3CC(C(=O)Nc4nnc(CC(C)(C)C)s4)CC3=O)c2c1 (configuration not stated)
1210 s	COc1ccc(Br)c2c1-c1nc(NC(=O)c3cccc(F)c3)sc1C2
652 s	Cc1ccn2cc(-c3ccc(NC(=O)c4cccc([N+](=O)[O-])c4)cc3)nc2n1
564 s	COc1ccc(F)cc1S(=O)(=O)N1CCC2(CC1)c1nccn1CCN2C
818 s	O=C(Cn1c(=O)c2cccn2c2ccc(F)cc21)NCc1ccc(F)cc1
